Results on 14 molecules are retold here after patent publication US10611740B2, “Aryl dihydro-2H-benzo[b][1,4]oxazine sulfonamide and related compounds for use as agonists of RORγ and the treatment of disease” (Lycera Corporation, priority 2015, dated 2020).

For assay [1], the target named is T1, RORγ-LBD (Homo sapiens, UniProt P51449).
T1 construct: made in house; host or cells: SF9 cells (baculovirus)
T1 sequence (P51449 269-508 limits assumed): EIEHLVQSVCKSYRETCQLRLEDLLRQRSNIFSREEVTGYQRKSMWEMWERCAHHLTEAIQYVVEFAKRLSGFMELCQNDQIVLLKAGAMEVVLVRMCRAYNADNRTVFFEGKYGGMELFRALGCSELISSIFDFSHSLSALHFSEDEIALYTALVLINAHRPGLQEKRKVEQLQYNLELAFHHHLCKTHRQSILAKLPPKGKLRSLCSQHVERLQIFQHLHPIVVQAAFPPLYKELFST
Description: RORγ-Ligand Binding Domain (LBD) TR-FRET Assay.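 For TR-FRET Assay Max Response: 665/615 nm ratio relative to signal without ursolic acid or compound set at 100.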 It is filed as biochemical. Summed up:
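His-tagged RORγ-LBD from SF9 baculovirus lysate, ~3 nM final, in 50 mM Tris pH 7.0, 50 mM KCl, 1 mM EDTA, 0.1 mM DTT, 0.01% BSA. Biotinylated SRC1 LXXLL peptide at 200 nM final with 2 μM ursolic acid; TR-FRET read-out, 1% DMSO final.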
(In general: In TR-FRET formats the signal depends on donor and acceptor labels being close together.)

For assay [2], the target named is T2, Gal4-RORγ-LBD (Homo sapiens, UniProt P51449).
T2 construct: expressed in transfected cells; host or cells: HEK-293 cells (pcDNA3.1neo plasmid)
T2 sequence (P51449 269-508 limits assumed): T1 sequence (P51449 269-508 limits assumed)
Description: Gal4-RORγ Luciferase Reporter Assay in HEK-293T Cells. It is filed as cell-based. Particulars: HEK-293 cells. Summed up:
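HEK-293 cells were transiently co-transfected with Gal4-RORγ-LBD and pGL4.31 Gal4-luciferase, with ursolic acid added at 2 μM final. Compounds were incubated overnight at 37° C. in 0.2% DMSO and luminescence read with One-Glo. Max Response is the upper plateau of a 4-parameter logistic fit, with signal lacking ursolic acid or compound set to 100.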
(In general: Reporter assays use an easily measured gene product as a stand-in for the process of interest.)

The mark [3] stands for this setting: luciferase reporter, with 2 μM ursolic acid.

Usually EC50 stands for the concentration needed to bring the measured effect to its halfway point.

On to `Cn1cnc(-c2ccc3c(c2)N(S(=O)(=O)c2cccc(C(F)(F)F)c2)C[C@H](CCC(=O)O)O3)n1` [Compound 4M, (S)-3-(6-(1-methyl-1H-1,2,4-triazol-3-yl)-4-((3-(trifluoro-methyl)phenyl)sulfonyl)-3,4-dihydro-2H-benzo[b][1,4]-oxazin-2-yl)propanoic acid], for which, in assay [1], the EC50 was less than 500 nM and the “TR-FRET Assay Max Response” value was “**** (The symbol “****” indicates a value greater than 200)”. In assay [2] (setting [3]), the EC50 is greater than 10000 nM and the “Gal4-RORγ Assay Max Response” value was “* (The symbol “*” indicates a value in the range of 25 to 90)”.

Regarding `CC(C)(C[C@H]1CN(S(=O)(=O)c2cccc(C(F)(F)F)c2)c2cc(-c3cc(F)cc(Cl)c3F)ccc2O1)C(=O)O` [Compound 32AI, (S)-3-(6-(3-chloro-2,5-difluoro-phenyl)-4-((3-(trifluoromethyl)-phenyl)sulfonyl)-3,4-dihydro-2H-benzo[b][1,4]oxazin-2-yl)-2,2-dimethylpropanoic acid], in assay [1], the concentration for a half-maximal effect (EC50) was less than 500 nM and the “TR-FRET Assay Max Response” value was “*** (The symbol “***” indicates a value in the range of greater than 150 to 200)”. Moreover, in assay [2] (2 μM ursolic acid), the EC50 is less than 500 nM and the “Gal4-RORγ Assay Max Response” value is recorded as “** (The symbol “**” indicates a value in the range of greater than 90 to 150)”.

As for `CC(=O)c1ccc(F)c(-c2ccc3c(c2)N(S(=O)(=O)c2cccc(C(F)(F)F)c2)C[C@H](CC(C)(C)C(=O)O)O3)c1` [Compound 32AE, (S)-3-(6-(5-acetyl-2-fluoro-phenyl)-4-((3-(trifluoromethyl)-phenyl)sulfonyl)-3,4-dihydro-2H-benzo[b][1,4]oxazin-2-yl)-2,2-dimethylpropanoic acid], in assay [1], the EC50 is less than 500 nM and the “TR-FRET Assay Max Response” value was “*** (The symbol “***” indicates a value in the range of greater than 150 to 200)”. Moreover, in assay [2] (2 μM ursolic acid), the half-maximal effective concentration (EC50) is less than 500 nM and the “Gal4-RORγ Assay Max Response” value is recorded as “* (The symbol “*” indicates a value in the range of 25 to 90)”.

In the case of `CCOc1cccc(-c2ccc3c(c2)N(S(=O)(=O)c2cccc(C(F)(F)F)c2)C[C@H](CCC(=O)O)O3)c1` [Compound 2AS, (S)-3-(6-(3-ethoxyphenyl)-4-((3-(trifluoromethyl)phenyl)-sulfonyl)-3,4-dihydro-2H-benzo[b][1,4]-oxazin-2-yl)propanoic acid], in assay [1], the EC50 is less than 500 nM and the “TR-FRET Assay Max Response” value is recorded as “**** (The symbol “****” indicates a value greater than 200)”. In assay [2] (setting [3]), the EC50 fell in the range of 500 to 5000 nM and the “Gal4-RORγ Assay Max Response” value is on record as “** (The symbol “**” indicates a value in the range of greater than 90 to 150)”.

For `O=C(NC[C@H]1CN(S(=O)(=O)c2cccc(C(F)(F)F)c2)c2cc(-c3cccc(F)c3Cl)ccc2O1)C1CC1` [Compound 30CF, (S)-N-((6-(2-chloro-3-fluoro-phenyl)-4-((3-(trifluoromethyl)-phenyl)sulfonyl)-3,4-dihydro-2H-benzo[b][1,4]oxazin-2-yl)methyl)cyclopropanecarbox-amide], in assay [1], the EC50 was less than 500 nM and the “TR-FRET Assay Max Response” value is “**** (The symbol “****” indicates a value greater than 200)”. Also, in assay [2] (2 μM ursolic acid), the concentration for a half-maximal effect (EC50) is less than 500 nM and the “Gal4-RORγ Assay Max Response” value is “** (The symbol “**” indicates a value in the range of greater than 90 to 150)”.

`Cc1nnc(-c2ccc3c(c2)N(S(=O)(=O)c2cccc(C(F)(F)F)c2)C[C@H](CCC(=O)O)O3)s1` [Compound 2AZ, (S)-3-(6-(5-methyl-1,3,4-thiadiazol-2-yl)-4-((3-(trifluoromethyl)phenyl)-sulfonyl)-3,4-dihydro-2H-benzo[b][1,4]oxazin-2-yl)propanoic acid]: the concentration for a half-maximal effect (EC50) in assay [1] is greater than 10000 nM. Besides, in assay [2] (setting [3]), the EC50 is greater than 10000 nM and the “Gal4-RORγ Assay Max Response” value is reported as “** (The symbol “**” indicates a value in the range of greater than 90 to 150)”.

For `COc1cccc(-c2ccc3c(c2)N(S(=O)(=O)c2cccc(C(F)(F)F)c2)C[C@H](CCCOc2noc(=O)[nH]2)O3)c1` [Compound 36B, (S)-3-(3-(6-(3-methoxyphenyl)-4-((3-(trifluoromethyl)phenyl)-sulfonyl)-3,4-dihydro-2H-benzo[b][1,4]oxazin-2-yl)propoxy)-1,2,4-oxadiazol-5(4H)-one], in assay [1], the EC50 is less than 500 nM and the “TR-FRET Assay Max Response” value is recorded as “**** (The symbol “****” indicates a value greater than 200)”. Further, in assay [2] (setting [3]), the EC50 was less than 500 nM and the “Gal4-RORγ Assay Max Response” value is reported as “** (The symbol “**” indicates a value in the range of greater than 90 to 150)”.

In the case of `O=C(O)C1(C[C@H]2CN(S(=O)(=O)c3cccc(C(F)(F)F)c3)c3cc(-c4cc(F)cc(OC(F)F)c4)ccc3O2)CCC1` [Compound 32BH, (S)-1-((6-(3-(difluoromethoxy)-5-fluorophenyl)-4-((3-(trifluoro-methyl)phenyl)sulfonyl)-3,4-dihydro-2H-benzo[b][1,4]oxazin-2-yl)methyl)cyclobutane-l-carboxylic acid], in assay [1], the concentration for a half-maximal effect (EC50) is less than 500 nM and the “TR-FRET Assay Max Response” value is reported as “*** (The symbol “***” indicates a value in the range of greater than 150 to 200)”. Moreover, in assay [2] (2 μM ursolic acid), the EC50 fell in the range of 500 to 5000 nM and the “Gal4-RORγ Assay Max Response” value is reported as “** (The symbol “**” indicates a value in the range of greater than 90 to 150)”.

Regarding `CN(C)c1cccc(-c2ccc3c(c2)N(S(=O)(=O)c2cccc(C(F)(F)F)c2)C[C@H](CCCOc2noc(=O)[nH]2)O3)n1` [Compound 35, (S)-3-(3-(6-(6-(dimethylamino)pyridin-2-yl)-4-((3-(trifluoromethyl)phenyl)sulfonyl)-3,4-dihydro-2H-benzo[b][1,4]oxazin-2-yl)propoxy)-1,2,4-oxadiazol-5(4H)-one], in assay [1], the EC50 was less than 500 nM and the “TR-FRET Assay Max Response” value is on record as “**** (The symbol “****” indicates a value greater than 200)”. Also, in assay [2] (setting [3]), the EC50 was less than 500 nM and the “Gal4-RORγ Assay Max Response” value is on record as “** (The symbol “**” indicates a value in the range of greater than 90 to 150)”.

In the case of `Cc1cc(Cl)cc(-c2ccc3c(c2)N(S(=O)(=O)c2cccc(C(F)(F)F)c2)C[C@H](CC(C)(C)C(=O)O)O3)c1` [Compound 32BB, (S)-3-(6-(3-chloro-5-methyl-phenyl)-4-((3-(trifluoromethyl)-phenyl)sulfonyl)-3,4-dihydro-2H-benzo[b][1,4]oxazin-2-yl)-2,2-dimethylpropanoic acid], in assay [1], the EC50 is less than 500 nM and the “TR-FRET Assay Max Response” value is recorded as “* (The symbol “*” indicates a value in the range of 25 to 90)”. Moreover, in assay [2] (2 μM ursolic acid), the EC50 is less than 500 nM and the “Gal4-RORγ Assay Max Response” value is recorded as “** (The symbol “**” indicates a value in the range of greater than 90 to 150)”.

With `O=C(O)C1(C[C@H]2CN(S(=O)(=O)c3cccc(C(F)(F)F)c3)c3cc(-c4cc(F)cc(F)c4)ccc3O2)CCC1` [Compound 32BD, (S)-1-((6-(3,5-difluorophenyl)-4-((3-(trifluoromethyl)phenyl)-sulfonyl)-3,4-dihydro-2H-benzo[b][1,4]oxazin-2-yl)methyl)cyclobutane-1-carboxylic acid], in assay [1], the concentration for a half-maximal effect (EC50) was less than 500 nM and the “TR-FRET Assay Max Response” value was “** (The symbol “**” indicates a value in the range of greater than 90 to 150)”. Moreover, in assay [2] (2 μM ursolic acid), the EC50 was less than 500 nM and the “Gal4-RORγ Assay Max Response” value is reported as “** (The symbol “**” indicates a value in the range of greater than 90 to 150)”.

Consider `O=C(O)[C@]1(C[C@H]2CN(S(=O)(=O)c3cccc(C(F)(F)F)c3)c3cc(-c4cc(F)cc(OC(F)F)c4)ccc3O2)CCNC1=O` [Compound 73, (S)-3-(((S)-6-(3-(difluoromethoxy)-5-fluorophenyl)-4-((3-(trifluoromethyl)phenyl)sulfonyl)-3,4-dihydro-2H-benzo[b][1,4]oxazin-2-yl)methyl)-2-oxopyrrolidine-3-carboxylic acid], for which, in assay [1], the EC50 is less than 500 nM and the “TR-FRET Assay Max Response” value is “*** (The symbol “***” indicates a value in the range of greater than 150 to 200)”. In addition, in assay [2] (2 μM ursolic acid), the EC50 is less than 500 nM and the “Gal4-RORγ Assay Max Response” value was “** (The symbol “**” indicates a value in the range of greater than 90 to 150)”.

On to `C[C@H](C[C@H]1CN(S(=O)(=O)c2cccc(C(F)(F)F)c2)c2cc(-c3cccc(Cl)c3F)ccc2O1)C(=O)O` [Compound 46D, (R)-3-((S)-6-(3-chloro-2-fluoro-phenyl)-4-((3-(trifluoromethyl)-phenyl)sulfonyl)-3,4-dihydro-2H-benzo[b][1,4]oxazin-2-yl)-2-methylpropanoic acid], for which, in assay [1], the concentration for a half-maximal effect (EC50) is less than 500 nM and the “TR-FRET Assay Max Response” value is listed as “*** (The symbol “***” indicates a value in the range of greater than 150 to 200)”. Moreover, in assay [2] (2 μM ursolic acid), the EC50 is less than 500 nM and the “Gal4-RORγ Assay Max Response” value is recorded as “** (The symbol “**” indicates a value in the range of greater than 90 to 150)”.

Consider `Cc1cccc(-c2ccc3c(c2)N(S(=O)(=O)c2cccc(C(F)(F)F)c2)C[C@H](CCC(=O)O)O3)c1C` [Compound 2BR, (S)-3-(6-(2,3-dimethylphenyl)-4-((3-(trifluoromethyl)phenyl)-sulfonyl)-3,4-dihydro-2H-benzo[b][1,4]oxazin-2-yl)propanoic acid], for which, in assay [1], the half-maximal effective concentration (EC50) is less than 500 nM and the “TR-FRET Assay Max Response” value is listed as “*** (The symbol “***” indicates a value in the range of greater than 150 to 200)”. Further, in assay [2] (2 μM ursolic acid), the concentration for a half-maximal effect (EC50) is less than 500 nM and the “Gal4-RORγ Assay Max Response” value was “** (The symbol “**” indicates a value in the range of greater than 90 to 150)”.
